“And” between values parts separate entries of the source, which are not always exact repeats. Equal entries are not always repeated. Where two headings read alike, the source gives them in different places.
Assays:
ICR male mice = test: Immunosuppression (humoral); assay type: in vivo, mouse
Description: (§1) Immunostimulation (humoral) in BALB/c male mice and Immunosuppression (humoral)^(2,7) on ICR male mice were negative.

[1] = system: female Swiss-Webster mice; test: in vivo; details: mouse
Method: (§2) Maximum tolerated doses of di-rhamnolipid W3CTS were administered intravenously in female Swiss-Webster mice.
(§3) Female Swiss-Webster mice obtained from the Houston, Tex. site Harlan Sprague Dawley, Inc were used in the study. All mice were divided into 6 groups. The vehicle and Di-rhamnolipid W3CTS were administered as an intravenous bolus, via tail vein, beginning with lowest dose level (75 mg/kg). […] In this study, the maximum tolerated dose of di-rhamnolipid W3CTS in female Swiss-Webster mice was 120 mg/kg. Three mice (LD50) of the next higher dose tested (135 /mg/kg) died immediately upon administration.

in vivo = details: female, Swiss-Webster, mouse, iv
Method: as §2, §3

[2] = molecular target: human dopamine D2L (human recombinant) (Homo sapiens, UniProt P14416); test: Dopamine D2L receptor binding of [3H]Spiperone; details: 100 μM in 0.5 DMSO
Method: (§4) At the concentration of 100 μM Di-rhamnolipid W3CTS in 0.5% DMSO, Di-rhamnolipid W3CTS inhibited 100% dopamine D1 (human recombinant) binding of [^3H] SCH23390. At the same concentration of 100 μM W3CTS in 0.5 DMSO measuring binding of [^3H]Spiperone to human dopamine D2L (human recombinant) was inhibited by 53%.

female ICR mice [3] = test: Immunostimulation (cellular): oxazolone-induced delayed type hypersensitivity; assay type: in vivo, mouse; details: oxazolone-induced DTH
Description: Immunostimulation (cellular): Oxazolone-induced delayed type hypersensitivity of female ICR mice was negative.

[4] = Micronucleus test in-vivo
female ICR mice [5] = test: Immunosuppression (cellular): oxazolone-induced delayed type hypersensitivity; assay type: in vivo, mouse; details: oxazolone-induced DTH
Description: Immunosuppression (cellular): Oxazolone-induced delayed type hypersensitivity of female ICR mice was negative.

psoriatic patients = test: Physician sponsored treatment of psoriatic patients (PASI); assay type: in vivo, human
Description: Twelve psoriatic hospital bed patients, and one patient with seborrheic dermatitis and psoriasis, one patient with lichen planus and one with dermatitis cicumscripta unilocullaris as an out clinic patient were recruited as study volunteers.
Abbreviations: PASI=Psoriasis Area Severity Index (Erythema, Infiltration and Scaling); PVP=Psoriasis Vulgaris in Placibus; d=days; m=months; y=years; ster=steroids (treated)

[6] = molecular target: dopamine D1 (human recombinant) (Homo sapiens, UniProt P21728); test: Dopamine D1 receptor binding of [3H]SCH23390; details: 100 μM in 0.5% DMSO
Method: as §4

BALB/c male mice = test: Immunostimulation (humoral); assay type: in vivo, mouse
Description: as §1

female and male mice = test: Blood findings after one single i/v dose; assay type: in vivo, mouse; details: 75 mg/kg single i/v dose
Method: Blood findings in female and male mice treated i/v with one single dose of 75 mg/kg of Di-rhamnolipid W3CTS
Monocytes were increased in treated mice up to 100% after 4th day and 29th

[7] = system: neonatal human keratinocytes; test: Neonatal human keratinocyte cell culture (proliferation, viability, apoptosis); assay type: cell-based
Method: On the contrary, Di-rhamnolipid W3CTS in the presence of serum and at high concentration of calcium increased the proliferation and the viability of keratinocytes and decreased the caspase activity. At the concentration of 50 μg/ml, Di-rhamnolipid W3CTS maximally stimulated the proliferation (34%) and the viability of keratinocytes (25%) as compared to control, and decreased the apoptosis (49%).

[8] = system: neonatal human fibroblasts; test: Neonatal human fibroblast cell culture (proliferation, viability, apoptosis); assay type: cell-based
Method: (§5) At the same concentration of 100 μg/ml W3CTS increased apoptosis by 72%.

[9] = as above; assay type: cell-based; details: human, neonatal human fibroblasts; 100 μg/ml; presence of serum; read-out: inhibition of viability of fibroblasts
Method: as §5

[10] = system: female Swiss-Webster mice; assay type: in vivo; details: for MORTAL. / SIGNIFICANT FINDINGS: 7 days
Method: Multi-dose toxicity study of Di-rhamnolipid W3CTS administered subcutaneously in female Swiss-Webster mice for 7 days recovery period. The effects of 7 daily subcutaneous injections of the 99.3% pure Di-rhamnolipid W3CTS, followed by 7-day recovery period, were determined in female Swiss-Webster mice. Five groups (3 mice per group) were administered W3CTS doses at 0.012; 1, 2; 60 and 120 mg/kg/day and vehicle. All animals were observed and weighed throughout the study for clinical signs of toxicity including skin injection sites. On study Day 13 (seven days after last injection, 6 days for group 5) all animals were euthanized. The thymus, liver, kidneys, spleen, heart and lungs were weighed and preserved.
No mortality occurred at any dose level. […] Abnormal clinical observations at some animals at groups (60 and 120 mg/kg) were limited to skin lesions at the injection sites. All skin lesions were healing at termination.
At necropsy, two animals from group 120 mg/kg had moderate enlargement of the spleen and liver and adhesions between liver, spleen, kidneys and peritoneum were seen also in one animal (See Table 1).
Histopathology of spleen, thymus, and liver and selected skin site lesions was performed on tissues from high dose group animals and one control. […] Histopathologic features of skin lesions included evidence of chronic active inflammation, co-existing with progressing ulceration and/or healing.

[11] = 200 μg/ml and 500 μg/ml, causing necrosis

Sequence of dopamine D1 (human recombinant) (P21728 whole entry): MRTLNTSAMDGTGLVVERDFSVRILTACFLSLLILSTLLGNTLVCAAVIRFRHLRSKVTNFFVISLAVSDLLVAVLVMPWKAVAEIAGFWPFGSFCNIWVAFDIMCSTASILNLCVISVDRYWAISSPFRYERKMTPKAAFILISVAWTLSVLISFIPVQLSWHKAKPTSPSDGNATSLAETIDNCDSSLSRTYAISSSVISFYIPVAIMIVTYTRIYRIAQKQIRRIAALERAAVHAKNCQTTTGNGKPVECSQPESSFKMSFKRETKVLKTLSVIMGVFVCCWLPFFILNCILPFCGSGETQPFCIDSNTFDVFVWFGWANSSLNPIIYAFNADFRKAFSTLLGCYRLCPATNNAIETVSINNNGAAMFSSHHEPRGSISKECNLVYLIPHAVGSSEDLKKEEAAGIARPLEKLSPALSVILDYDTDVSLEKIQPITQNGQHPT
Sequence of human dopamine D2L (human recombinant) (P14416 whole entry): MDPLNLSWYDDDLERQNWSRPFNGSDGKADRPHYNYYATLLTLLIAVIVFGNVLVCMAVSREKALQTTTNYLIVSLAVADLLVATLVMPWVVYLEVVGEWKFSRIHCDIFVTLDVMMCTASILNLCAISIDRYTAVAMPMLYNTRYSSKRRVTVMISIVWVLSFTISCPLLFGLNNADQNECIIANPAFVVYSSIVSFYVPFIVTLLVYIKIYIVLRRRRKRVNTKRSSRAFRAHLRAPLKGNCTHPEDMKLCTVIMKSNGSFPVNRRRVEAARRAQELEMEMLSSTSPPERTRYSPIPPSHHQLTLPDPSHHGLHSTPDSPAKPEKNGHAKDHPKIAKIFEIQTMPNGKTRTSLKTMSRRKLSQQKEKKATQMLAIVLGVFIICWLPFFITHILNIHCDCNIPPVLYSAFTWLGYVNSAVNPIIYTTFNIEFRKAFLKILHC

CCCCCCCC(CC(=O)O)OC(=O)CC(CCCCCCC)OC1OC(C)C(O)C(O)C1OC1OC(C)C(O)C(O)C1O (stereo not drawn) [Di-rhamnolipid W3CTS]
Immunosuppression (humoral) (ICR male mice): negative
gross abnormalities at necropsy [1]: no gross abnormalities
tail finding, higher dose groups [1]: scabbing and necrosis of tails
LD50 at 14 day (in vivo): 135 mg/kg
MTD at 14 day (in vivo): 120 mg/kg
inhibition at 100 µM [2]: 53%
Immunostimulation (cellular) (female ICR mice [3]): negative
micronucleus test [4]: negative
Immunosuppression (cellular) (female ICR mice [5]): negative
Psoriasis Area Severity Index After Treatment W3CTS (psoriatic patients; 1.0% eucerin ointment, 15-40 treating days, one patient per line): 0.2 (5×) and 0.3 and 0.4 and 6 and 0.6 (2×) and 1.6 and 0.9
Psoriasis Area Severity Index Extended Evaluation W3CTS (psoriatic patients; 1 y (year), one patient per line): 1 y = 0
Psoriasis Area Severity Index Extended Evaluation W3CTS (psoriatic patients; 3 m (months), one patient per line): 3 m = 0 (2×) and 3 m relapse and 3 m = 0.1
Psoriasis Area Severity Index Before Treatment W3CTS (psoriatic patients; baseline of W3CTS treated lesions, one patient per line): 9.6 (2×) and 8.1 (3×) and 10.8 (4×) and 14.4 and 5.4 and 8.4
duration free of psoriatic lesions (psoriatic patients; some of the patients): free of psoriatic lesions up to seven years
inhibition at 100 µM [6]: 100%
Immunostimulation (humoral) (BALB/c male mice): negative
increase of monocytes (female and male mice; after 4th day and 29th): up to 100%
increase of neutrophils in blood (female and male mice; after 29 days): 43.61%
decrease of lymphocytes (female and male mice; fourth day): 24.15%
increase of neutrophils in blood (female and male mice; fourth day): 51.77%
decrease of lymphocytes (female and male mice; twenty nine days): 24.60%
decrease of apoptosis of keratinocytes ([7]; 50 μg/ml, serum, high calcium): 49%
stimulation of proliferation of keratinocytes vs control ([7]; 50 μg/ml, serum, high calcium): 34%
stimulation of viability of keratinocytes vs control ([7]; 50 μg/ml, serum, high calcium): 25%
cell proliferation and viability, keratinocytes [7, 11]: fully inhibited cell proliferation and viability
proliferation and viability of keratinocytes ([7]; without serum, low calcium, 100 μg/ml, caused necrosis): fully inhibited proliferation and viability
increase of apoptosis of fibroblasts ([8]; 100 μg/ml, presence of serum): 72%
cell proliferation and viability, fibroblasts [8, 11]: fully inhibited cell proliferation and viability
inhibition at 100 µg/mL ([8]; Homo sapiens, Fibroblast, 100 μg/ml, presence of serum): 46%
cytotoxicity at 100 μg/ml [9]: 28%
MORTAL. ([10]; 0.012 mg/kg/day s.c.): 0/3
SIGNIFICANT FINDINGS ([10]; 0.012 mg/kg/day s.c.): None
MORTAL. ([10]; 1.20 mg/kg/day s.c.): 0/3
SIGNIFICANT FINDINGS ([10]; 1.20 mg/kg/day s.c.): None
MORTAL. ([10]; 60 mg/kg/day s.c.): 0/3
Histopathology: extramedullary hematopoiesis (mice) ([10]; 120 mg/kg/day s.c.): mouse, extramedullary hematopoiesis in 2
Histopathology: thymic involution (mice) ([10]; 120 mg/kg/day s.c.): Histopathology: thymic involution in 1
Necroscopy findings: adhesions between the liver and the spleen, kidneys and peritoneum (mice) ([10]; 120 mg/kg/day s.c.): spleen, kidneys and peritoneum (1/3
MORTAL. ([10]; 120 mg/kg/day s.c.): 0/3
